Reference: ChEMBL document CHEMBL1201862, “PubChem BioAssay data set” (2004)
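Interpolation was linear, between the two tested concentrations surrounding the appropriate level; five concentrations were tested over 48 hours in 96-well plates. Here, GI50 denotes the concentration required for 50% inhibition of growth.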 Activity calls are given as the source filed them. No stated cut-off is given here; in the data, active = GI50 up to about 1.1 µM and inactive = higher.

Assays:
Assay in all cases: inhibition of tumour cell growth, NCI panel, 48 h
A549 = tested on: A549
UO-31 = tested on: UO-31
SW-620 = tested on: SW-620
UACC-62 = tested on: UACC-62
HCT-116 = tested on: HCT-116
U-251 = tested on: U-251
RPMI-8226 = tested on: RPMI-8226
OVCAR-5 = tested on: OVCAR-5
SK-MEL-28 = tested on: SK-MEL-28
SF-295 = tested on: SF-295
PC-3 = tested on: PC-3
COLO 205 = tested on: COLO 205
NCI-H522 = tested on: NCI-H522
MDA-MB-231 = tested on: MDA-MB-231
K562 = tested on: K562
NCI-H23 = tested on: NCI-H23
OVCAR-8 = tested on: OVCAR-8
TK-10 = tested on: TK-10
Hs-578T = tested on: Hs-578T
RXF 393 = tested on: RXF 393
UACC-257 = tested on: UACC-257
BT-549 = tested on: BT-549
T47D = tested on: T47D
HCT-15 = tested on: HCT-15
HCC 2998 = tested on: HCC 2998
DU-145 = tested on: DU-145
HT-29 = tested on: HT-29
SF-268 = tested on: SF-268
SF-539 = tested on: SF-539
HL-60 = tested on: HL-60
CAKI-1 = tested on: CAKI-1
NCI/ADR-RES = tested on: NCI/ADR-RES
MCF7 = tested on: MCF7
SK-OV-3 = tested on: SK-OV-3
SN12C = tested on: SN12C
786-0 = tested on: 786-0
A498 = tested on: A498
KM12 = tested on: KM12
LOX IMVI = tested on: LOX IMVI
MOLT-4 = tested on: MOLT-4
IGROV-1 = tested on: IGROV-1
MDA-N = tested on: MDA-N
OVCAR-3 = tested on: OVCAR-3
SK-MEL-5 = tested on: SK-MEL-5
CCRF-CEM = tested on: CCRF-CEM
OVCAR-4 = tested on: OVCAR-4
EKVX = tested on: EKVX
M14 = tested on: M14
MDA-MB-435 = tested on: MDA-MB-435
SNB-75 = tested on: SNB-75
NCI-H460 = tested on: NCI-H460
HOP-62 = tested on: HOP-62
NCI-H226 = tested on: NCI-H226
SNB-19 = tested on: SNB-19
Malme-3M = tested on: Malme-3M
ACHN = tested on: ACHN
SR = tested on: SR
HOP-92 = tested on: HOP-92
SK-MEL-2 = tested on: SK-MEL-2

Oc1c(Cl)ccc2cccnc12
GI50 (A549): 3.96 µM (inactive) | GI50 (UO-31): 3.35 µM (inactive) | GI50 (SW-620): 2.53 µM (inactive) | GI50 (UACC-62): 2.24 µM (inactive) | GI50 (HCT-116): 1.79 µM (inactive) | GI50 (U-251): 3.69 µM (inactive) | GI50 (RPMI-8226): 2.71 µM (inactive) | GI50 (OVCAR-5): 5.87 µM (inactive) | GI50 (SK-MEL-28): 22.8 µM (inactive) | GI50 (SF-295): 2.79 µM (inactive) | GI50 (PC-3): 4.71 µM (inactive) | GI50 (COLO 205): 4.25 µM (inactive) | GI50 (NCI-H522): 1.63 µM (inactive) | GI50 (MDA-MB-231): 3.76 µM (inactive) | GI50 (K562): 1.32 µM (inactive) | GI50 (NCI-H23): 5.06 µM (inactive) | GI50 (OVCAR-8): 2.63 µM (inactive) | GI50 (TK-10): 4.36 µM (inactive) | GI50 (Hs-578T): 4.32 µM (inactive) | GI50 (RXF 393): 1.83 µM (inactive) | GI50 (UACC-257): 6.03 µM (inactive) | GI50 (BT-549): 15.5 µM (inactive) | GI50 (T47D): 1.2 µM (inactive) | GI50 (HCT-15): 0.927 µM | GI50 (HCC 2998): 12.7 µM (inactive) | GI50 (DU-145): 9.73 µM (inactive) | GI50 (HT-29): 18.4 µM (inactive) | GI50 (SF-268): 2.72 µM (inactive) | GI50 (SF-539): 3.4 µM (inactive) | GI50 (HL-60): 0.28 µM (active) | GI50 (CAKI-1): 3.25 µM (inactive) | GI50 (NCI/ADR-RES): 0.432 µM (active) | GI50 (MCF7): 1.02 µM (active) | GI50 (SK-OV-3): 4.71 µM (inactive) | GI50 (SN12C): 4.58 µM (inactive) | GI50 (786-0): 6.18 µM (inactive) | GI50 (A498): 4.81 µM (inactive) | GI50 (KM12): 4.88 µM (inactive) | GI50 (LOX IMVI): 1.94 µM (inactive) | GI50 (MOLT-4): 1.84 µM (inactive) | GI50 (IGROV-1): 0.223 µM (active) | GI50 (MDA-N): 16.6 µM (inactive) | GI50 (OVCAR-3): 2.09 µM (inactive) | GI50 (SK-MEL-5): 3.42 µM (inactive) | GI50 (CCRF-CEM): 0.347 µM (active) | GI50 (OVCAR-4): 3.21 µM (inactive) | GI50 (EKVX): 3.43 µM (inactive) | GI50 (M14): 3 µM (inactive) | GI50 (MDA-MB-435): 10.1 µM (inactive) | GI50 (SNB-75): 11.6 µM (inactive) | GI50 (NCI-H460): 3.4 µM (inactive) | GI50 (HOP-62): 3.75 µM (inactive) | GI50 (NCI-H226): 5.12 µM (inactive) | GI50 (SNB-19): 13.3 µM (inactive) | GI50 (Malme-3M): 8.89 µM (inactive) | GI50 (ACHN): 3.61 µM (inactive) | GI50 (SR): 1.88 µM (inactive) | GI50 (HOP-92): < 0.01 µM (active)

C/C=C/C=C/C1=NN(c2cccc(S(=O)(=O)O)c2)C2(C1)SCC(=O)N2c1nc2ccccc2s1 (configuration not stated)
GI50 (A549): 86.3 µM (inactive) | GI50 (UO-31): 47.8 µM (inactive) | GI50 (SW-620): 72.1 µM (inactive) | GI50 (UACC-62): 40.7 µM (inactive) | GI50 (HCT-116): 67 µM (inactive) | GI50 (U-251): 37.9 µM (inactive) | GI50 (RPMI-8226): 29.9 µM (inactive) | GI50 (OVCAR-5): > 100 µM (inactive) | GI50 (SK-MEL-28): > 100 µM (inactive) | GI50 (PC-3): 62.2 µM (inactive) | GI50 (COLO 205): > 100 µM (inactive) | GI50 (NCI-H522): 33.1 µM (inactive) | GI50 (MDA-MB-231): 56.2 µM (inactive) | GI50 (K562): 44 µM (inactive) | GI50 (NCI-H23): 42.5 µM (inactive) | GI50 (OVCAR-8): 36.2 µM (inactive) | GI50 (TK-10): 47.8 µM (inactive) | GI50 (Hs-578T): > 100 µM (inactive) | GI50 (RXF 393): > 100 µM (inactive) | GI50 (UACC-257): > 100 µM (inactive) | GI50 (BT-549): 35.3 µM (inactive) | GI50 (T47D): 24.6 µM (inactive) | GI50 (HCT-15): 69.2 µM | GI50 (HCC 2998): > 100 µM (inactive) | GI50 (DU-145): 34.5 µM (inactive) | GI50 (HT-29): > 100 µM (inactive) | GI50 (SF-268): 89.7 µM (inactive) | GI50 (SF-539): 45.9 µM (inactive) | GI50 (SK-MEL-2): 37.8 µM (inactive) | GI50 (HL-60): > 100 µM (inactive) | GI50 (CAKI-1): 86.3 µM (inactive) | GI50 (NCI/ADR-RES): 51.2 µM (inactive) | GI50 (MCF7): 47.4 µM (inactive) | GI50 (SN12C): 41.2 µM (inactive) | GI50 (786-0): 19.8 µM (inactive) | GI50 (A498): 50.5 µM (inactive) | GI50 (KM12): 54.6 µM (inactive) | GI50 (LOX IMVI): 19.6 µM (inactive) | GI50 (MOLT-4): 29.4 µM (inactive) | GI50 (IGROV-1): 19.7 µM (inactive) | GI50 (MDA-N): 61 µM (inactive) | GI50 (SK-MEL-5): 85.5 µM (inactive) | GI50 (CCRF-CEM): 24.2 µM (inactive) | GI50 (OVCAR-4): 93.3 µM (inactive) | GI50 (EKVX): 55.8 µM (inactive) | GI50 (M14): > 100 µM (inactive) | GI50 (MDA-MB-435): 36.1 µM (inactive) | GI50 (SNB-75): 68.5 µM (inactive) | GI50 (NCI-H460): 45.5 µM (inactive) | GI50 (NCI-H226): 30.8 µM (inactive) | GI50 (SNB-19): 47 µM (inactive) | GI50 (Malme-3M): > 100 µM (inactive) | GI50 (ACHN): 76.7 µM (inactive) | GI50 (SR): 25.1 µM (inactive) | GI50 (HOP-92): 26.2 µM (inactive)

O=C1CC(CC(O)C(O)C(O)CO)CC(=O)N1 (configuration not stated)
GI50 (A549): > 100 µM (inactive) | GI50 (UO-31): > 100 µM (inactive) | GI50 (SW-620): > 100 µM (inactive) | GI50 (HCT-116): > 100 µM (inactive) | GI50 (U-251): > 100 µM (inactive) | GI50 (RPMI-8226): > 100 µM (inactive) | GI50 (OVCAR-5): > 100 µM (inactive) | GI50 (SK-MEL-28): > 100 µM (inactive) | GI50 (SF-295): > 100 µM (inactive) | GI50 (PC-3): > 100 µM (inactive) | GI50 (COLO 205): > 100 µM (inactive) | GI50 (NCI-H522): > 100 µM (inactive) | GI50 (MDA-MB-231): > 100 µM (inactive) | GI50 (K562): > 100 µM (inactive) | GI50 (NCI-H23): > 100 µM (inactive) | GI50 (OVCAR-8): > 100 µM (inactive) | GI50 (Hs-578T): > 100 µM (inactive) | GI50 (RXF 393): > 100 µM (inactive) | GI50 (UACC-257): > 100 µM (inactive) | GI50 (BT-549): > 100 µM (inactive) | GI50 (T47D): > 100 µM (inactive) | GI50 (HCT-15): > 100 µM | GI50 (HCC 2998): > 100 µM (inactive) | GI50 (DU-145): > 100 µM (inactive) | GI50 (HT-29): > 100 µM (inactive) | GI50 (SF-268): > 100 µM (inactive) | GI50 (SF-539): > 100 µM (inactive) | GI50 (HL-60): > 100 µM (inactive) | GI50 (CAKI-1): > 100 µM (inactive) | GI50 (NCI/ADR-RES): > 100 µM (inactive) | GI50 (MCF7): > 100 µM (inactive) | GI50 (SN12C): > 100 µM (inactive) | GI50 (786-0): > 100 µM (inactive) | GI50 (A498): > 100 µM (inactive) | GI50 (KM12): > 100 µM (inactive) | GI50 (LOX IMVI): > 100 µM (inactive) | GI50 (MOLT-4): > 100 µM (inactive) | GI50 (IGROV-1): > 100 µM (inactive) | GI50 (MDA-N): > 100 µM (inactive) | GI50 (OVCAR-3): > 100 µM (inactive) | GI50 (SK-MEL-5): > 100 µM (inactive) | GI50 (CCRF-CEM): > 100 µM (inactive) | GI50 (OVCAR-4): > 100 µM (inactive) | GI50 (EKVX): > 100 µM (inactive) | GI50 (M14): > 100 µM (inactive) | GI50 (MDA-MB-435): > 100 µM (inactive) | GI50 (SNB-75): > 100 µM (inactive) | GI50 (NCI-H460): > 100 µM (inactive) | GI50 (HOP-62): > 100 µM (inactive) | GI50 (NCI-H226): > 100 µM (inactive) | GI50 (Malme-3M): > 100 µM (inactive) | GI50 (ACHN): > 100 µM (inactive) | GI50 (SR): > 100 µM (inactive) | GI50 (HOP-92): > 100 µM (inactive)
